Test results published in patent US9328070B2, “Ethynyl derivatives” (Hoffmann-La Roche Inc., priority 2012, dated 2016).

Columns and labels:
[1] = target: T1, human mGlu5a receptor (Homo sapiens (Human), UniProt P41594); test: Intracellular Ca2+ mobilization assay (mGlu5 PAM assay); assay type: cell-based; conditions: for EC50 (nM) mGlu5 PAM assay / mGlu5 PAM EC50 [nM]: HEK-293 cells, human mGlu5a, glutamate at EC20; for Activity profile: PAM = positive allosteric modulator, NAM = negative allosteric modulator; for Efficacy [%]: maximal response in % of the maximal stimulatory effect of saturating L-glutamate
T1 sequence (P41594 other isoform, or with tags, fused parts or gaps): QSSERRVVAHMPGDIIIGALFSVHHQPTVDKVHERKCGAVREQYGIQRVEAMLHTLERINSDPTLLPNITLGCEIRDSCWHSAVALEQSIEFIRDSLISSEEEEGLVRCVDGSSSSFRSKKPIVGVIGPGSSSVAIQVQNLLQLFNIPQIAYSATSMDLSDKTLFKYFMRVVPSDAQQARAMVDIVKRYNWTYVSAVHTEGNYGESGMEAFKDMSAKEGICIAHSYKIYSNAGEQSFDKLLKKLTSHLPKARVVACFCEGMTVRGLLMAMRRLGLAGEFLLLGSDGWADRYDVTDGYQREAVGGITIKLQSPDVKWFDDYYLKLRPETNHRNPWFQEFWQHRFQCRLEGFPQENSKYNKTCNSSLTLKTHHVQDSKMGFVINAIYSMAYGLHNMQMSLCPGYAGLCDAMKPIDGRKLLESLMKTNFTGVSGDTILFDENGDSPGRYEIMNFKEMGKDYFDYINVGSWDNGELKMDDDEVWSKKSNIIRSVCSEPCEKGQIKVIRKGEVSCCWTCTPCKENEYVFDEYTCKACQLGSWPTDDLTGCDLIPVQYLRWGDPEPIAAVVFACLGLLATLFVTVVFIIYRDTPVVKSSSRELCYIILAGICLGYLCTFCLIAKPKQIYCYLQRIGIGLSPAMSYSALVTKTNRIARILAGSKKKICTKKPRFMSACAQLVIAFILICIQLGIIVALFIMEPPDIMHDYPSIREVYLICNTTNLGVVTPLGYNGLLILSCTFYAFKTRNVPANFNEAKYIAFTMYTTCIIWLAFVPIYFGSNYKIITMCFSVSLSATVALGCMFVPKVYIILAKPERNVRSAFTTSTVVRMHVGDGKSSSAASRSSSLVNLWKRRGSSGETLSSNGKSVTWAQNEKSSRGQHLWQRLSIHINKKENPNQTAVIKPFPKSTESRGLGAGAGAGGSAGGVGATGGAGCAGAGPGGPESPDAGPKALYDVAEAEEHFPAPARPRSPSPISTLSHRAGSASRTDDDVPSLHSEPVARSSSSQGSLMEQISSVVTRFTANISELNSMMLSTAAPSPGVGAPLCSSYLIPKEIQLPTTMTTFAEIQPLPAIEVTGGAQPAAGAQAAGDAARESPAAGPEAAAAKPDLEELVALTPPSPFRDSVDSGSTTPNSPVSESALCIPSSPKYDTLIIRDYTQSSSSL
Protocol: A monoclonal HEK-293 cell line stably transfected with a cDNA encoding for the human mGlu5a receptor was generated; for the work with mGlu5 Positive Allosteric Modulators (PAMs), a cell line with low receptor expression levels and low constitutive receptor activity was selected to allow the differentiation of agonistic versus PAM activity. Cells were cultured according to standard protocols (Freshney, 2000) in Dulbecco's Modified Eagle Medium with high glucose supplemented with 1 mM glutamine, 10% (vol/vol) heat-inactivated bovine calf serum, Penicillin/Streptomycin, 50 μg/ml hygromycin and 15 μg/ml blasticidin (all cell culture reagents and antibiotics from Invitrogen, Basel, Switzerland).
About 24 hrs before an experiment, 5×10^4 cells/well were seeded in poly-D-lysine coated, black/clear-bottomed 96-well plates. The cells were loaded with 2.5 μM Fluo-4AM in loading buffer (1×HBSS, 20 mM HEPES) for 1 hr at 37° C. and washed five times with loading buffer. The cells were transferred into a Functional Drug Screening System 7000 (Hamamatsu, Paris, France), and 11 half logarithmic serial dilutions of test compound at 37° C. were added and the cells were incubated for 10-30 min. with on-line recording of fluorescence. Following this pre-incubation step, the agonist L-glutamate was added to the cells at a concentration corresponding to EC20 (typically around 80 μM) with on-line recording of fluorescence; in order to account for day-to-day variations in the responsiveness of cells, the EC20 of glutamate was determined immediately ahead of each experiment by recording of a full dose-response curve of glutamate.
Responses were measured as peak increase in fluorescence minus basal (i.e. fluorescence without addition of L-glutamate), normalized to the maximal stimulatory effect obtained with saturating concentrations of L-glutamate. Graphs were plotted with the % maximal stimulatory using XLfit, a curve fitting program that iteratively plots the data using Levenburg Marquardt algorithm. The single site competition analysis equation used was y=A+((B−A)/(1+((x/C)D))), where y is the % maximal stimulatory effect, A is the minimum y, B is the maximum y, C is the EC50, x is the log 10 of the concentration of the competing compound and D is the slope of the curve (the Hill Coefficient). From these curves the EC50 (concentration at which half maximal stimulation was achieved), the Hill coefficient as well as the maximal response in % of the maximal stimulatory effect obtained with saturating concentrations of L-glutamate were calculated.
A depression of the signal observed after addition of the EC20 concentration of L-glutamate was indicative of an inhibitory activity of the test compound.

[2] = target: T1, human mGlu5a receptor; test: MPEP binding assay ([3H]MPEP displacement); conditions: [3H]MPEP 2 nM, 1 h at 4° C., EBNA cell membranes
Protocol: For binding experiments, cDNA encoding human mGlu 5a receptor was transiently transfected into EBNA cells using a procedure described by Schlaeger and Christensen [Cytotechnology 15:1-13 (1998)]. Cell membrane homogenates were stored at −80° C. until the day of assay where upon they were thawed and resuspended and polytronised in 15 mM Tris-HCl, 120 mM NaCl, 100 mM KCl, 25 mM CaCl2, 25 mM MgCl2 binding buffer at pH 7.4 to a final assay concentration of 20 μg protein/well.
Saturation isotherms were determined by addition of twelve [^3H]MPEP concentrations (0.04-100 nM) to these membranes (in a total volume of 200 μl) for 1 h at 4° C. Competition experiments were performed with a fixed concentration of [^3H]MPEP (2 nM) and IC50 values of test compounds evaluated using 11 concentrations (0.3-10,000 nM). Incubations were performed for 1 h at 4° C.
At the end of the incubation, membranes were filtered onto unifilter (96-well white microplate with bonded GF/C filter preincubated 1 h in 0.1% PEI in wash buffer, Packard BioScience, Meriden, Conn.) with a Filtermate 96 harvester (Packard BioScience) and washed 3 times with cold 50 mM Tris-HCl, pH 7.4 buffer. Nonspecific binding was measured in the presence of 10 μM MPEP. The radioactivity on the filter was counted (3 min) on a Packard Top-count microplate scintillation counter with quenching correction after addition of 45 μl of microscint 40 (Canberra Packard S.A., Zurich, Switzerland) and shaking for 20 min.

Activity profile [1]	Ki [2]	Efficacy [%] [1]	SMILES	also measured
NAM	28 nM		CN(C(=O)c1ccc(C#Cc2ccnc(Cl)c2)cn1)C(C)(C)C [Example 1, 5-(2-Chloro-pyridin-4-ylethynyl)-pyridine-2-carboxylic acid tert-butyl-methyl-amide]	EC50 (nM) mGlu5 PAM assay [1]: inactive
NAM	15 nM		CN(C(=O)c1ccc(C#Cc2cccc(Cl)c2)cn1)C(C)(C)C [Example 2, 5-(3-Chloro-phenylethynyl)-pyridine-2-carboxylic acid tert-butyl-methyl-amide]	EC50 (nM) mGlu5 PAM assay [1]: inactive
PAM	42 nM		CN(C(=O)c1ccc(C#Cc2cncc(Cl)c2)cn1)C(C)(C)C [Reference compound 2, reference compound]	
PAM	58 nM		CC(C)(NC(=O)c1ccc(C#Cc2ccnc(Cl)c2)cn1)C(F)(F)F [Reference compound 3, reference compound]	
		33%	CN(C(=O)c1ccc(C#Cc2cncc(Cl)c2)cn1)C(C)(C)C [drawing 4]	
		80%	CC(C)(NC(=O)c1ccc(C#Cc2ccnc(Cl)c2)cn1)C(F)(F)F [drawing 5]	
			CN(C(=O)c1ccc(C#Cc2ccnc(Cl)c2)cn1)C(C)(C)C [drawing 6]	mGlu5 PAM EC50 [nM] [1]: Inactive
			CN(C(=O)c1ccc(C#Cc2cccc(Cl)c2)cn1)C(C)(C)C [drawing 7]	mGlu5 PAM EC50 [nM] [1]: inactive

SMILES	Activity profile [1]	Ki [2]	Efficacy [%] [1]	also measured
CN(C(=O)c1ccc(C#Cc2cccc(F)c2)cn1)C(C)(C)C [Reference compound 1, reference compound]	PAM	29 nM		
CN(C(=O)c1ccc(C#Cc2cccc(F)c2)cn1)C(C)(C)C [drawing 3]			64%	
